Source: patent publication US20090286745A1, “INHIBITION OF ALPHA-SYNUCLEIN AGGREGATION” (Zapaloid Limited, priority 2006, published 2009)
Entries after “also recorded” stand apart in the source; their conditions may differ.

Tests used:
[1] = target: T1, ASYN (Homo sapiens, UniProt P37840); assay: Kinetic ThT aggregation assay in 25 mM Tris-Cl pH 7.4 with 100 mg/ml PEG 3350; assay type: biochemical; details: for decrease in the endpoint ThT reading: Tris-Cl pH 7.4, 48 hours, average over the named inhibitors; for inhibition compared to ASYN alone: both buffer conditions (Tris-Cl pH 7.4 and PBS); for inhibition compared to ASYN alone / ThT signal compared to ASYN (FIG. 11): 50 μM ASYN, 100 μM inhibitor; for ThT signal compared to ASYN (FIG. 11): endpoint, Tris-Cl pH 7.4 at 37° C. with 100 mg/ml PEG 3350
Procedure: (§1) Kinetic ThT assays were performed by adding ThT directly to the sample at time=0. A 2.5 mM ThT stock solution was made up in the buffer that was used in the aggregation experiment, filtered through a […] Millex GV filter and diluted to 62.5 μM by adding 5 μl to final sample volume of 200 μl in a 96-well polypropylene plate. The increase in fluorescence over time as a result of amyloid formation was measured in a Biotek Synergy HT plate reader at 37° C. with shaking. Cut off filters were used for exitation at 440/30 nm and emission at 485/20 nm. Readings were every 10 minutes with shaking for 500 seconds before each reading.
For compounds ZP-0089 to ZP-0094, a kinetic ThT experiment was performed in 25 mM Tris-Cl at 37° C. to test the inhibition properties of ZP-0089 to ZP-0094 in Tris-Cl pH 7.4. Each 200 μl sample on the 96 well-plate contained 50 μM ASYN, 100 μM inhibitor and 100 mg/ml PEG along with buffer only and ASYN only controls. Samples were measured in triplicate. ThT fluorescence over time was monitored for 48 hours.

[2] = target: T1, ASYN; assay: Kinetic ThT aggregation assay in PBS pH 7.4; assay type: biochemical; details: for endpoint ThT fluorescence / lag phase / lag time / rate of amyloid formation: FIG. 13, PBS, asyn:inhibitor 1:2; for ThT signal compared to ASYN (FIG. 12): endpoint, legend prints Tris-Cl pH 7.4 at 37° C. with 100 mg/ml PEG 3350
Procedure: The molar ratio of asyn:inhibitor is 1:2. For both, ASYN aggregation inhibition is observed as an increased lag time along with decreased endpoint ThT fluorescence.
as §1
For compounds ZP-0089 to ZP-0094, a kinetic experiment was performed to test the inhibition properties in PBS pH 7.4 as described above. Samples were assayed in triplicate and each sample contained 50 μl of 200 μM ASYN and 50 μl of 400 μM inhibitor was added to 100 μl PBS in a well and mixed to yield a 200 μl sample volume containing 50 μM ASYN and 100 μM inhibitor. Control wells contained either buffer only or ASYN only.

Substance | decrease in the endpoint ThT reading [1] | inhibition compared to ASYN alone [1] | ThT signal compared to ASYN (FIG. 11) [1] | endpoint ThT fluorescence [2] | lag phase / lag time [2] | rate of amyloid formation [2] | ThT signal compared to ASYN (FIG. 12) [2]
Ac-sgvylvg-COOH [ZP-0091] | 18±2% | – | – | – | – | – | –
NH2-sgvylvg-COOH [ZP-0092] | 18±2% | – | – | – | – | – | –
NH2-sgvylvg-NH2 [ZP-0094] | 18±2% | – | – | – | – | – | –
L-DOPA-gpvntvq-NH2 [ZP-0090] | – | > 30% | significantly decreased | decreased | increased | decreased | significantly decreased
L-DOPA-sgvylvg-NH2 [ZP-0089] | – | > 60% | significantly decreased | decreased | large increase; also recorded: increased | decreased | significantly decreased
